According to patent US7202084B2, “Beta-alanine N-methyltransferase” (University of Florida Research Foundation, Inc., priority 2001, dated 2007):
One block for each compound: values may come before it.

How the values were obtained:
[1] = molecular target: T1, L. latifolium NMTase (Limonium latifolium, UniProt Q84N56); test: Kinetic characterization of NMTase, radiometric assay; type: biochemical
T1 sequence (Q84N56 1-375): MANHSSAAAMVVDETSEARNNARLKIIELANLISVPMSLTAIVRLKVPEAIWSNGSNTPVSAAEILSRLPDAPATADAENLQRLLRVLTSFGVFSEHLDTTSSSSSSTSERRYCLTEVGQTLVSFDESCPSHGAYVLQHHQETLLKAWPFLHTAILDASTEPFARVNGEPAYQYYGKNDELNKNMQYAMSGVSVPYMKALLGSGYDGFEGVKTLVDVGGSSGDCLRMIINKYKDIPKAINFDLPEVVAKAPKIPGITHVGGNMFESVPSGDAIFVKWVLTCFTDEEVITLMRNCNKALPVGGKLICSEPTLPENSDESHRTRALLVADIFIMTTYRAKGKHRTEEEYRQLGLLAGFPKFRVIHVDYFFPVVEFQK
Description: Enzyme Assay. […] Following incubation at 30° C. for 30 minutes, the reactions were stopped by the addition of 10 μL of 10% (w/v) trichloroacetic acid containing 1 mM of methylated products as unlabeled carrier. Activated charcoal (38 mg.ml^-1) in 0.1 N acetic acid, 250 μL per assay, was added and centrifuged for five minutes. The radioactive product in the supernatant was quantified in 75% Ready Gel using a liquid scintillation counter (Beckman Instruments, Fullerton, Calif.). […] Kinetic Characterization. […] Kinetic constants were derived from the X and Y intercepts of a linear plot of s/v versus s drawn from triplicate assay results. Henderson, P J F (1993) Statistical analysis of enzyme kinetic data. In […]., Enzyme assays a practical approach, IRL Press, Oxford, pp. 276-316.

[2] = molecular target: T1, L. latifolium NMTase; test: Effect of a thiol reagent on NMTase activities; type: biochemical; settings: for % Activity DM: N,N-dimethyl β-alanine as methyl acceptor; for % Activity DM / % Activity MM / % Activity BA: mean ± SE, n=3; for % Activity MM: N-methyl β-alanine as methyl acceptor; for % Activity BA: β-alanine as methyl acceptor
Description: Enzyme Assay. […] The assay mixture contained 54 μL of enzyme preparation in a total volume of 100 μL containing 0.1 M Tris-HCl buffer pH 8.0, 2 mM DTT, 10 mM methyl acceptor, 100 μM AdoMet and 0.027 μM S-Adenosyl-L-[methyl-^3H]Met (200 nCi of radioactivity). Following incubation at 30° C. for 30 minutes, the reactions were stopped by the addition of 10 μL of 10% (w/v) trichloroacetic acid containing 1 mM of methylated products as unlabeled carrier. Activated charcoal (38 mg.ml^−1) in 0.1 N acetic acid, 250 μL per assay, was added and centrifuged for five minutes. The radioactive product in the supernatant was quantified in 75% Ready Gel using a liquid scintillation counter (Beckman Instruments, Fullerton, Calif.). The counting efficiency was 30%.
Effect of a Thiol Reagent. Protein purified using PEG precipitation was assayed with or without added DTT in the presence and absence of the thiol reagent p-hydroxymercuribenzoic acid.

[3] = 0.2 mM pHMB 10 min + 5 mM DTT for 30 min, relative to control
[4] = Minus DTT plus 0.2 mM pHMB, relative to control with 5 mM DTT

Concentration above which substrate inhibition was exhibited ([1]; at 10 mM β-alanine): above 200 μM
SMILES: C[S+](CC[C@H](N)C(=O)[O-])C[C@H]1O[C@@H](n2cnc3c(N)ncnc32)[C@H](O)[C@@H]1O (stereo partly drawn) [Ado-Met, S-adenosyl-L-methionine]

SMILES: O=C(O)c1cc[c]([Hg+])cc1.[OH-] [pHMB, p-hydroxymercuribenzoate]
Inhibition of NMTase (in words) [2]: highly inhibited | Reversibility of the inhibition by DTT [2]: partially reversible | % Activity DM [2, 3]: 55.2 ± 7.6% | % Activity MM [2, 3]: 23.0 ± 2.9% | % Activity BA [2, 3]: 22.6 ± 2.9% | % Activity DM [2, 4]: 0.4 ± 0.2% | % Activity MM [2, 4]: 2.4 ± 1.4% | % Activity BA [2, 4]: 1.3 ± 0.7%

Inhibition of NMTase (in words) [1]: highly inhibitory | IC50 ([1]; read-out: Concentration giving 50% inhibition of NMTase, 10 mM β-alanine and 100 μM Ado-Met): 40 µM
SMILES: Nc1ncnc2c1ncn2[C@@H]1O[C@H](CSCC[C@H](N)C(=O)O)[C@@H](O)[C@H]1O [AdoHCy, S-adenosyl-L-homocysteine]
